From patent US20100160369A1, “S1P1 Agonists and Methods of Making And Using” (EXELIXIS, INC., priority 2008, published 2010)
Like-named read-outs stand apart in the source and are kept apart here.

Molecular target: S1P1 (Homo sapiens, UniProt P21453)
Test: CNG cAMP Assay (Assay 1)
Format: cell-based
Parameters: host or cells: HEK293 cells expressing the CNG channel
Experimental: Frozen HEK293 cells expressing the CNG channel and S1P1 (BD Biosciences, San Jose, Calif.) were thawed and plated into the wells of a black, clear bottom, 384-well CellBind plate (Corning, Corning, N.Y.) at 14,000 cells per well. HEK293 cells expressing the CNG channel and CB1 (BD Biosciences) were cultured and plated under the same conditions. The cells were incubated for 16 h at 37° C. in complete DMEM medium (Invitrogen Carlsbad, Calif.) containing 10% FBS (HyClone Logan, Utah), 250 μg/mL geneticin (Invitrogen), and 1 μg/mL puromycin (Sigma-Aldrich, St. Louis, Mo.). A membrane potential dye (BD Biosciences) was added and the plates were incubated for 2-2.5 h at room temperature.
Test compounds were tested at maximum concentrations of 10 μM. Compounds were diluted in DMSO (10 concentration points, 3-fold each) and added to the assay plate at final DMSO concentrations of 1.8%. For each compound, there were duplicate assay plates and each assay plate had duplicate wells per concentration point. Test compounds were added to the cells in a DPBS solution containing 25 μM Ro 20-1724 (Sigma-Aldrich), 500 nM of the A2b receptor agonist NECA (Sigma-Aldrich) and 10 nM (EC95) of S1P (Avanti Alabaster, Ala.) and incubated for 90 min. The assay plate was read before compound addition (T0) and after the 90 min incubation (T90) using an EnVision plate reader (PerkinElmer, Waltham, Mass.) at an excitation wavelength of 350 nm and an emission wavelength of 590 nm. The T90/T0 ratio was determined for each concentration of the test compounds. The percent agonist activity was determined as [(test compound−DMSO alone control)/(NECA alone control−DMSO alone control)*100]. The percent activities were plotted against compound concentration to determine EC50 using XLFit (IDBS, Alameda, Calif.). The control used for calculating rEC50 in the S1P1 CNG agonist assay was DMSO.
Assay 1 is the CNG cAMP Assay as described in Biological Example 1. Assay 2a and 2b are the Tango™ β-arrestin Recruitment Assay in HEK293 and U2OS cells, respectively, as described in Biological Example 2. Assay 3a is the hS1P1R GTPγS Binding Assay as described in Biological Example 3. Assay 3b is the GTP-Eu Binding Assay as described in Biological Example 3. EC50's were measured unless otherwise noted. […] In the table, “nt” means the Compound was not tested and “no” means the compound was tested but had no measurable activity under the assay conditions employed.

[1] = footnote 1: Relative EC50 was measured, read-out: Assay 1 Relative EC50

S1P1, sequence (P21453 whole entry): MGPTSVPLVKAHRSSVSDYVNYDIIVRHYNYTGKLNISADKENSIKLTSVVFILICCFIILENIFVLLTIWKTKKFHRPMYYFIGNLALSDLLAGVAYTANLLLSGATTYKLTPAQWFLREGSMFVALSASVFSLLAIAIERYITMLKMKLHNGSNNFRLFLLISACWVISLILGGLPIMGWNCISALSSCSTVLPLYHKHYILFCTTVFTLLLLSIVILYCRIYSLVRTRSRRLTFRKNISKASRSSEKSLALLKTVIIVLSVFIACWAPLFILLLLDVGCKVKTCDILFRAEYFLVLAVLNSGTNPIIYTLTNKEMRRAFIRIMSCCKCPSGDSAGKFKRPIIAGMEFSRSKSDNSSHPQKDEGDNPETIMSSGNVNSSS

For `Cc1cc(-c2noc(-c3cn4cc(C(F)(F)F)cc(Cl)c4n3)n2)cc(C)c1O[C@@H](C)CO` [Example 107, (2S)-2-[(4-{5-[8-chloro-6-(trifluoromethyl)imidazo[1,2-a]pyridin-2-yl]-1,2,4-oxadiazol-3-yl}-2,6-dimethylphenyl)oxy]propan-1-ol], the EC50 (read-out: Assay 1 EC50) was ≤ 100 nM.
`CC(C)(Oc1ccc(-c2noc(-c3cn4cc(C(F)(F)F)cc(Cl)c4n3)n2)c(Cl)c1)C(=O)O` [Example 254, 2-[(3-chloro-4-{5-[8-chloro-6-(trifluoromethyl)imidazo[1,2-a]pyridin-2-yl]-1,2,4-oxadiazol-3-yl}phenyl)oxy]-2-methylpropanoic acid] showed an EC50 [1] of 5000 to 10000 nM.
In the case of `NCC(O)COc1cc(Cl)c(-c2nnc(-c3cn4cc(C(F)(F)F)cc(Cl)c4n3)s2)cc1F` (stereo not drawn) [Example 249, 1-amino-3-[(5-chloro-4-{5-[8-chloro-6-(trifluoromethyl)imidazo[1,2-a]pyridin-2-yl]-1,3,4-thiadiazol-2-yl}-2-fluorophenyl)oxy]propan-2-ol], the EC50 (read-out: Assay 1 EC50) is reported as ≤ 100 nM.
In the case of `FC(F)(F)c1cc(Cl)c2nc(-c3nnc(-c4ccccc4Cl)o3)cn2c1` [Entry 73], the EC50 (read-out: Assay 1 EC50) is reported as ≤ 100 nM.
For `CS(=O)(=O)Nc1ccc(-c2noc(-c3cn4cc(C(F)(F)F)cc(Cl)c4n3)n2)cc1Cl` [Example 122, N-(2-chloro-4-{5-[8-chloro-6-(trifluoromethyl)imidazo[1,2-a]pyridin-2-yl]-1,2,4-oxadiazol-3-yl}phenyl)methanesulfonamide], the EC50 (read-out: Assay 1 EC50) was ≤ 100 nM.
In the case of `CS(=O)(=O)CCc1ccc(-c2noc(-c3cn4cc(C(F)(F)F)cc(Cl)c4n3)n2)c(Cl)c1` [Example 140, 8-chloro-2-(3-{2-chloro-4-[2-(methylsulfonyl)ethyl]phenyl}-1,2,4-oxadiazol-5-yl)-6-(trifluoromethyl)imidazo[1,2-a]pyridine], the EC50 (read-out: Assay 1 EC50) is reported as ≤ 100 nM.
With `O=C(O)C1CC1c1ccc(-c2noc(-c3cn4cc(C(F)(F)F)cc(Cl)c4n3)n2)cc1Cl` (stereo not drawn) [Example 215, 2-(2-chloro-4-{5-[8-chloro-6-(trifluoromethyl)imidazo[1,2-a]pyridin-2-yl]-1,2,4-oxadiazol-3-yl}phenyl)cyclopropanecarboxylic acid] the EC50 (read-out: Assay 1 EC50) was ≤ 100 nM.
`O=C(O)c1cc2cc(-c3noc(-c4cn5cc(C(F)(F)F)cc(Cl)c5n4)n3)ccc2o1` [Example 158, 5-{5-[8-chloro-6-(trifluoromethyl)imidazo[1,2-a]pyridin-2-yl]-1,2,4-oxadiazol-3-yl}-1-benzofuran-2-carboxylic acid] showed an EC50 [1] of 1000 to 5000 nM.
With `CC(Oc1cc(Cl)c(-c2noc(-c3cn4cc(C(F)(F)F)cc(Cl)c4n3)n2)cc1F)C(=O)O` (stereo not drawn) [Example 83, 2-[(5-chloro-4-{5-[8-chloro-6-(trifluoromethyl)imidazo[1,2-a]pyridin-2-yl]-1,2,4-oxadiazol-3-yl}-2-fluorophenyl)oxy]propanoic acid] the EC50 (read-out: Assay 1 EC50) was 100 to 500 nM.
`O=C(O)C1CN(Cc2cccc(-c3noc(-c4cn5cc(C(F)(F)F)cc(Cl)c5n4)n3)c2)C1` [Example 121, 1-[(3-{5-[8-chloro-6-(trifluoromethyl)imidazo[1,2-a]pyridin-2-yl]-1,2,4-oxadiazol-3-yl}phenyl)methyl]azetidine-3-carboxylic acid] was tested, and the EC50 (read-out: Assay 1 EC50) was 500 to 1000 nM.
Work on `OC[C@H]1C[C@H](Oc2ccc(-c3noc(-c4cn5cc(C(F)(F)F)cc(Cl)c5n4)n3)c(Cl)c2)CN1` [Example 84, {(2R,4S)-4-[(3-chloro-4-{5-[8-chloro-6-(trifluoromethyl)imidazo[1,2-a]pyridin-2-yl]-1,2,4-oxadiazol-3-yl}phenyl)oxy]pyrrolidin-2-yl}methanol] yielded an EC50 (read-out: Assay 1 EC50) of 100 to 500 nM.
`FC(F)(F)c1cc(Cl)c2nc(-c3nc(-c4ccccc4C(F)(F)F)no3)cn2c1` [Example 165, 8-chloro-6-(trifluoromethyl)-2-{3-[2-(trifluoromethyl)phenyl]-1,2,4-oxadiazol-5-yl}imidazo[1,2-a]pyridine] was tested, and the EC50 (read-out: Assay 1 EC50) was 100 to 500 nM.
In the case of `FC(F)(F)c1cccc(-c2noc(-c3cn4cc(C(F)(F)F)cc(Cl)c4n3)n2)c1` [Example 143, 8-chloro-6-(trifluoromethyl)-2-{3-[3-(trifluoromethyl)phenyl]-1,2,4-oxadiazol-5-yl}imidazo[1,2-a]pyridine], the EC50 (read-out: Assay 1 EC50) is reported as 500 to 1000 nM.
`O=C(Cn1ccc2c(-c3noc(-c4cn5cc(C(F)(F)F)cc(Cl)c5n4)n3)cccc21)NCCO` [Example 175, 2-(4-{5-[8-chloro-6-(trifluoromethyl)imidazo[1,2-a]pyridin-2-yl]-1,2,4-oxadiazol-3-yl}-1H-indol-1-yl)-N-(2-hydroxyethyl)acetamide] was tested, and the EC50 (read-out: Assay 1 EC50) was ≤ 100 nM.
`CC(N)COc1ccc(-c2noc(-c3cn4cc(C(F)(F)F)cc(Cl)c4n3)n2)c(Cl)c1` (stereo not drawn) [Example 200, 1-[(3-chloro-4-{5-[8-chloro-6-(trifluoromethyl)imidazo[1,2-a]pyridin-2-yl]-1,2,4-oxadiazol-3-yl}phenyl)oxy]propan-2-amine] was tested, and the EC50 (read-out: Assay 1 EC50) was 100 to 500 nM.
`CS(=O)(=O)Nc1ccc(-c2noc(-c3cn4cc(C(F)(F)F)cc(Cl)c4n3)n2)c(F)c1` [Example 129, N-(4-{5-[8-chloro-6-(trifluoromethyl)imidazo[1,2-a]pyridin-2-yl]-1,2,4-oxadiazol-3-yl}-3-fluorophenyl)methanesulfonamide] gave an EC50 (read-out: Assay 1 EC50) of 100 to 500 nM.
Molecule `O=C(O)CCNCc1ccc(-c2noc(-c3cn4cc(C(F)(F)F)cc(Cl)c4n3)n2)cc1` [Example 123, N-[(4-{5-[8-chloro-6-(trifluoromethyl)imidazo[1,2-a]pyridin-2-yl]-1,2,4-oxadiazol-3-yl}phenyl)methyl]-beta-alanine] has an EC50 (read-out: Assay 1 EC50) of 100 to 500 nM.
In the case of `Cc1cc(-c2noc(-c3cn4cc(C(F)(F)F)cc(Cl)c4n3)n2)ccc1C1CC1C(=O)O` (stereo not drawn) [Example 86, 2-(4-{5-[8-chloro-6-(trifluoromethyl)imidazo[1,2-a]pyridin-2-yl]-1,2,4-oxadiazol-3-yl}-2-methylphenyl)cyclopropanecarboxylic acid], the EC50 (read-out: Assay 1 EC50) is reported as 100 to 500 nM.
`OCCCOc1ccc(-c2noc(-c3cn4cc(C(F)(F)F)cc(Cl)c4n3)n2)c(Cl)c1` [Example 199, 3-[(3-chloro-4-{5-[8-chloro-6-(trifluoromethyl)imidazo[1,2-a]pyridin-2-yl]-1,2,4-oxadiazol-3-yl}phenyl)oxy]propan-1-ol] gave an EC50 (read-out: Assay 1 EC50) of 100 to 500 nM.
In the case of `CC(Oc1cc(Cl)c(-c2nc(-c3cn4cc(C(F)(F)F)cc(Cl)c4n3)no2)cc1F)C(=O)O` (stereo not drawn) [Example 205, 2-[(5-chloro-4-{3-[8-chloro-6-(trifluoromethyl)imidazo[1,2-a]pyridin-2-yl]-1,2,4-oxadiazol-5-yl}-2-fluorophenyl)oxy]propanoic acid], the EC50 [1] is reported as 100 to 500 nM.
In the case of `Fc1ccc(-c2noc(-c3cn4cc(C(F)(F)F)cc(Br)c4n3)n2)c(Cl)c1` [Example 281, 8-bromo-2-[3-(2-chloro-4-fluorophenyl)-1,2,4-oxadiazol-5-yl]-6-(trifluoromethyl)imidazo[1,2-a]pyridine], the EC50 (read-out: Assay 1 EC50) is reported as 100 to 500 nM.
For `Cc1cc(-c2noc(-c3cn4cc(C(F)(F)F)cc(Cl)c4n3)n2)cc(C)c1O[C@H](C)CO` [Example 91, (2R)-2-[(4-{5-[8-chloro-6-(trifluoromethyl)imidazo[1,2-a]pyridin-2-yl]-1,2,4-oxadiazol-3-yl}-2,6-dimethylphenyl)oxy]propan-1-ol], the EC50 (read-out: Assay 1 EC50) was ≤ 100 nM.
For `Cc1cc(F)ccc1-c1noc(-c2cn3cc(C(F)(F)F)cc(Cl)c3n2)n1` [Example 152, 8-chloro-2-[3-(4-fluoro-2-methylphenyl)-1,2,4-oxadiazol-5-yl]-6-(trifluoromethyl)imidazo[1,2-a]pyridine], the EC50 (read-out: Assay 1 EC50) was ≤ 100 nM.
Work on `O=C(O)CCc1cc(Cl)c(-c2noc(-c3cn4cccc(Cl)c4n3)n2)cc1F` [Entry 32] yielded an EC50 (read-out: Assay 1 EC50) of 100 to 500 nM.
With `O=C(O)CCc1ccc(-c2noc(-c3cn4cc(C(F)(F)F)cc(Cl)c4n3)n2)c(C(F)(F)F)c1` [Entry 8] the EC50 (read-out: Assay 1 EC50) was ≤ 100 nM.
Molecule `CC(C)(CO)Oc1c(F)cc(-c2noc(-c3cn4cc(C(F)(F)F)cc(Cl)c4n3)n2)cc1Cl` [Example 262, 2-[(2-chloro-4-{5-[8-chloro-6-(trifluoromethyl)imidazo[1,2-a]pyridin-2-yl]-1,2,4-oxadiazol-3-yl}-6-fluorophenyl)oxy]-2-methylpropan-1-ol] has an EC50 [1] of 1000 to 5000 nM.
Work on `CC(CC(=O)O)c1ccc(-c2noc(-c3cn4cc(C(F)(F)F)cc(Cl)c4n3)n2)c(F)c1` (stereo not drawn) [Example 186, 3-(4-{5-[8-chloro-6-(trifluoromethyl)imidazo[1,2-a]pyridin-2-yl]-1,2,4-oxadiazol-3-yl}-3-fluorophenyl)butanoic acid] yielded an EC50 (read-out: Assay 1 EC50) of 100 to 500 nM.
